Data reported in US20100190817A1, “LARGE SUBSTITUENT, NON-PHENOLIC AMINE OPIOIDS” (RENSSELAER POLYTECHNIC INSTITUTE, priority 2008, published 2010).

Legend:
human μ opioid receptor = human μ opioid receptor (Homo sapiens, UniProt P35372); assay: Opioid receptor binding assay, [3H]DAMGO (μ)
human δ opioid receptor = human δ opioid receptor (Homo sapiens, UniProt P41143); assay: Opioid receptor binding assay, [3H]naltrindole (δ)
human κ opioid receptor = human κ opioid receptor (Homo sapiens, UniProt P41145); assay: Opioid receptor binding assay, [3H]U69,593 (κ)
Sequence of human κ opioid receptor (P41145 whole entry): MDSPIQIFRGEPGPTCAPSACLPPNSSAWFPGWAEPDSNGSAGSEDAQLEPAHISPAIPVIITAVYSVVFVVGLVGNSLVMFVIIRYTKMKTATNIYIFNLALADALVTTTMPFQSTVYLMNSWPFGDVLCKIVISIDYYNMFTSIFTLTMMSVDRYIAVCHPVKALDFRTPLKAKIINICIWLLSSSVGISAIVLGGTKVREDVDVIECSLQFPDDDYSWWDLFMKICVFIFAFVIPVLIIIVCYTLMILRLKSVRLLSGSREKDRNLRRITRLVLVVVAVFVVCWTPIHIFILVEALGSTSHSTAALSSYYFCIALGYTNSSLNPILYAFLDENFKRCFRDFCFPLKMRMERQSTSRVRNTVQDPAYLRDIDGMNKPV

mice = conditions: cited from earlier work; for duration of action (antinociception): 1 mg/kg ip in mice
κ opioid receptors = conditions: cited from earlier work
guinea pig μ receptors = conditions: cited from earlier work

Sequence of human μ opioid receptor (P35372 whole entry): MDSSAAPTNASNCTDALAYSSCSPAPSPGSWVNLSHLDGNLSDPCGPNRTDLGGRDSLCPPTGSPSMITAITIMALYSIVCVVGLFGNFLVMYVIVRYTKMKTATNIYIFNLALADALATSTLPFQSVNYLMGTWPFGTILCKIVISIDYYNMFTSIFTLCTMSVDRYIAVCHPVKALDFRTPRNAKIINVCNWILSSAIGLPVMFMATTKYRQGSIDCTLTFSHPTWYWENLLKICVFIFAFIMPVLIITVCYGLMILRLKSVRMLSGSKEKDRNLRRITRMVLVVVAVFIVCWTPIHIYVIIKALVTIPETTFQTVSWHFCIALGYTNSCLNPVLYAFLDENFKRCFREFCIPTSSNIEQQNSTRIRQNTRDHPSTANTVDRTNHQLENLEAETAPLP
Sequence of human δ opioid receptor (P41143 whole entry): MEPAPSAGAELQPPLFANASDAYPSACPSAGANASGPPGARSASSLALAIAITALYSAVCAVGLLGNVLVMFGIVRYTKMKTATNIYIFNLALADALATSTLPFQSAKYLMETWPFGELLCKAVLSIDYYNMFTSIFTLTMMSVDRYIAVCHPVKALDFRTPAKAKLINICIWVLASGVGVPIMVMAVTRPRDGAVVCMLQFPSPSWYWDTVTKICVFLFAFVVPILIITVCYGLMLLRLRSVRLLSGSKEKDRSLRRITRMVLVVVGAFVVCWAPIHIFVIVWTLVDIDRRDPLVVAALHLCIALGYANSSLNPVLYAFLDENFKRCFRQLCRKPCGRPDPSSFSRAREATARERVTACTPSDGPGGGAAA

SMILES | Ki (human μ opioid receptor) | Ki (human δ opioid receptor) | Ki (human κ opioid receptor) | duration of action (antinociception) (mice) | affinity for κ opioid receptors (κ opioid receptors) | antinociception activity (mice; studies in vivo) | affinity for μ opioid receptors (guinea pig μ receptors)
CC1C2Cc3ccc(C(=O)NCCc4ccc(-c5cccc(N(C)C)c5)cc4)cc3C1(C)CCN2CC1CC1 (centres unmarked) [SJJ-B-074c] | 0.18 ± 0.055 nM | 2.5 ± 0.17 nM | 0.26 ± 0.022 nM |  |  |  | 
CC1C2Cc3ccc(C(=O)NCCc4ccc(-c5ccc(CN(C)C)cc5)cc4)cc3C1(C)CCN2CC1CC1 (centres unmarked) [SJJ-C-013b] | 0.094 ± 0.0054 nM | 3.7 ± 0.15 nM | 1.9 ± 0.014 nM |  |  |  | 
CC1C2Cc3ccc(C(=O)NCCc4ccc(-c5ccc(N)cc5)cc4)cc3C1(C)CCN2CC1CC1 (centres unmarked) [SJJ-B-112g] | 0.0014 ± 0.0001 nM | 1.5 ± 0.078 nM | 0.39 ± 0.0085 nM |  |  |  | 
C[C@H]1[C@H]2Cc3ccc(O)cc3[C@]1(C)CCN2CC1CC1 [cyclazocine] |  |  |  | 2 h |  |  | 
C[C@H]1C2Cc3ccc(C(N)=O)cc3[C@@]1(C)CCN2CC1CC1 [Example 8-CAC, 8-carboxamidocyclazocine] |  |  |  | 15 h | high affinity | high antinociception activity | high affinity
CC1C2Cc3ccc(C(=O)NCCc4ccc(-c5ccc(NC(=O)OC(C)(C)C)cc5)cc4)cc3C1(C)CCN2CC1CC1 (centres unmarked) [SJJ-C-027b] | 0.32 ± 0.015 nM | 3.1 ± 0.34 nM | 3.4 ± 0.32 nM |  |  |  | 
